# Measurements reported in patent US8952024B2, “Herbicidal pyrimidone derivatives” (E I du Pont de Nemours and Company, priority 2009, dated 2015).
# Columns and labels:
# Type in all cases: in vivo
# [1] = test system: Italian ryegrass (Lolium multiflorum); experiment: Test B pre-/postemergence plant response; conditions: for Ryegrass, Italian plant response rating (0 to 100 scale): 62 g ai/ha, 0 is no effect, 13 to 15 days
# In short: (§1)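 Steps: sow seed in loam–sand soil and spray preemergence, or grow plants in peat-based medium to 1–4 leaves (2–18 cm) and spray postemergence; formulation is non-phytotoxic solvent plus surfactant; hold in greenhouse 13–15 days; score visually vs controls, 0 = no effect, 100 = complete control.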
# [2] = test system: bermudagrass (Cynodon dactylon); experiment: Test B pre-/postemergence plant response; conditions: for Bermudagrass plant response rating (0 to 100 scale): 62 g ai/ha, 0 is no effect, 13 to 15 days
# In short: as §1
# [3] = test system: blackgrass (Alopecurus myosuroides); experiment: Test B pre-/postemergence plant response; conditions: for Blackgrass plant response rating (0 to 100 scale): 62 g ai/ha, 0 is no effect, 13 to 15 days
# In short: as §1
# [4] = test system: corn (Zea mays); experiment: Test B pre-/postemergence plant response; conditions: for Corn plant response rating (0 to 100 scale): 62 g ai/ha, 0 is no effect, 13 to 15 days
# In short: as §1
# [5] = test system: downy bromegrass (Bromus tectorum); experiment: Test B pre-/postemergence plant response; conditions: for Bromegrass, Downy plant response rating (0 to 100 scale): 62 g ai/ha, 0 is no effect, 13 to 15 days
# In short: as §1
# [6] = test system: giant foxtail (Setaria faberii); experiment: Test B pre-/postemergence plant response; conditions: for Foxtail, Giant plant response rating (0 to 100 scale): 62 g ai/ha, 0 is no effect, 13 to 15 days
# In short: as §1
# [7] = test system: goosegrass (Eleusine indica); experiment: Test B pre-/postemergence plant response; conditions: for Goosegrass plant response rating (0 to 100 scale): 62 g ai/ha, 0 is no effect, 13 to 15 days
# In short: as §1
# [8] = test system: green foxtail (Setaria viridis); experiment: Test B pre-/postemergence plant response; conditions: for Foxtail, Green plant response rating (0 to 100 scale): 62 g ai/ha, 0 is no effect, 13 to 15 days
# In short: as §1
# [9] = test system: johnsongrass (Sorghum halepense); experiment: Test B pre-/postemergence plant response; conditions: for Johnsongrass plant response rating (0 to 100 scale): 62 g ai/ha, 0 is no effect, 13 to 15 days
# In short: as §1
# [10] = test system: morningglory (Ipomoea coccinea); experiment: Test B pre-/postemergence plant response; conditions: for Morningglory plant response rating (0 to 100 scale): 62 g ai/ha, 0 is no effect, 13 to 15 days
# In short: as §1
# [11] = test system: pigweed (Amaranthus retroflexus); experiment: Test B pre-/postemergence plant response; conditions: for Pigweed plant response rating (0 to 100 scale): 62 g ai/ha, 0 is no effect, 13 to 15 days
# In short: as §1
# [12] = test system: ragweed (common ragweed, Ambrosia elatior); experiment: Test B pre-/postemergence plant response; conditions: for Ragweed plant response rating (0 to 100 scale): 62 g ai/ha, 0 is no effect, 13 to 15 days
# In short: as §1
# [13] = test system: soybean (Glycine max); experiment: Test B pre-/postemergence plant response; conditions: for Soybean plant response rating (0 to 100 scale): 62 g ai/ha, 0 is no effect, 13 to 15 days
# In short: as §1
# [14] = test system: velvetleaf (Abutilon theophrasti); experiment: Test B pre-/postemergence plant response; conditions: for Velvetleaf plant response rating (0 to 100 scale): 62 g ai/ha, 0 is no effect, 13 to 15 days
# In short: as §1
# [15] = test system: wheat (Triticum aestivum); experiment: Test B pre-/postemergence plant response; conditions: for Wheat plant response rating (0 to 100 scale): 62 g ai/ha, 0 is no effect, 13 to 15 days
# In short: as §1
# [16] = test system: canarygrass (Phalaris minor); experiment: Test B postemergence plant response; conditions: for Canarygrass plant response rating (0 to 100 scale): 62 g ai/ha, 0 is no effect, 13 to 15 days
# In short: (§2)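 Visual ratings from 0 (no effect) to 100 (complete control), made against controls 13–15 days after treatment, kept in a greenhouse. Compounds were applied postemergence to potted plants at the 1- to 4-leaf stage (2–18 cm).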
# [17] = test system: chickweed (Stellaria media); experiment: Test B postemergence plant response; conditions: for Chickweed plant response rating (0 to 100 scale): 62 g ai/ha, 0 is no effect, 13 to 15 days
# In short: as §2
# [18] = test system: winter barley (Hordeum vulgare); experiment: Test B postemergence plant response; conditions: for Barley plant response rating (0 to 100 scale): 62 g ai/ha, 0 is no effect, 13 to 15 days
# In short: as §2
# [19] = 31 g ai/ha, postemergence, scale 0 to 100, 0 is no effect, 100 is complete control
# [20] = postemergence, 100 is complete control
# [21] = Postemergence, 250 g ai/ha, scale 0 to 100 (0 no effect, 100 complete control)
# [22] = Postemergence, 125 g ai/ha, visual rating after 13 to 15 days, scale 0 (no effect) to 100 (complete control)
smiles,measurement,setting,value
COCCOCCn1c(-c2ccccc2)ncc(C(=O)C2=C(O)CCCC2=O)c1=O [Compound 91],"Plant response rating, Ryegrass, Italian",[1]; [19],0
same,"Ryegrass, Italian plant response rating (0 to 100 scale)",[1]; [20],5
same,"Plant response rating, Ryegrass, Italian",[1]; [21],20
same,"Plant response rating, Bermudagrass",[2]; [19],75
same,Bermudagrass plant response rating (0 to 100 scale),[2]; [20],95
same,"Plant response rating, Bermudagrass",[2]; [22],95
same,"Plant response rating, Bermudagrass",[2]; [21],95
same,"Plant response rating, Blackgrass",[3]; [19],10
same,Blackgrass plant response rating (0 to 100 scale),[3]; [20],20
same,"Plant response rating, Blackgrass",[3]; [22],30
same,"Plant response rating, Blackgrass",[3]; [21],50
same,"Plant response rating, Corn",[4]; [19],25
same,Corn plant response rating (0 to 100 scale),[4]; [20],35
same,"Plant response rating, Corn",[4]; [22],45
same,"Plant response rating, Corn",[4]; [21],60
same,"Plant response rating, Bromegrass, Downy",[5]; [19],0
same,"Bromegrass, Downy plant response rating (0 to 100 scale)",[5]; [20],5
same,"Plant response rating, Bromegrass, Downy",[5]; [22],5
same,"Plant response rating, Bromegrass, Downy",[5]; [21],30
same,"Plant response rating, Foxtail, Giant",[6]; [19],85
same,"Foxtail, Giant plant response rating (0 to 100 scale)",[6]; [20],98
same,"Plant response rating, Foxtail, Giant",[6]; [21],98
same,"Plant response rating, Goosegrass",[7]; [19],30
same,Goosegrass plant response rating (0 to 100 scale),[7]; [20],75
same,"Plant response rating, Goosegrass",[7]; [21],85
same,"Plant response rating, Foxtail, Green",[8]; [19],70
same,"Foxtail, Green plant response rating (0 to 100 scale)",[8]; [20],85
same,"Plant response rating, Foxtail, Green",[8]; [21],98
same,"Plant response rating, Johnsongrass",[9]; [19],65
same,Johnsongrass plant response rating (0 to 100 scale),[9]; [20],90
same,"Plant response rating, Johnsongrass",[9]; [21],100
same,"Plant response rating, Morningglory",[10]; [19],75
same,Morningglory plant response rating (0 to 100 scale),[10]; [20],90
same,"Plant response rating, Morningglory",[10]; [21],98
same,"Plant response rating, Pigweed",[11]; [19],100
same,Pigweed plant response rating (0 to 100 scale),[11]; [20],100
same,"Plant response rating, Pigweed",[11]; [21],100
same,"Plant response rating, Ragweed",[12]; [19],85
same,Ragweed plant response rating (0 to 100 scale),[12]; [20],85
same,"Plant response rating, Ragweed",[12]; [21],98
same,"Plant response rating, Soybean",[13]; [19],75
same,Soybean plant response rating (0 to 100 scale),[13]; [20],85
same,"Plant response rating, Soybean",[13]; [21],98
same,"Plant response rating, Velvetleaf",[14]; [19],98
same,Velvetleaf plant response rating (0 to 100 scale),[14]; [20],100
same,"Plant response rating, Velvetleaf",[14]; [21],100
same,"Plant response rating, Wheat",[15]; [19],0
same,Wheat plant response rating (0 to 100 scale),[15]; [20],10
same,"Plant response rating, Wheat",[15]; [21],50
same,"Plant response rating, Canarygrass",[16]; [19],25
same,Canarygrass plant response rating (0 to 100 scale),[16]; [20],55
same,"Plant response rating, Canarygrass",[16]; [22],65
same,"Plant response rating, Canarygrass",[16]; [21],75
same,"Plant response rating, Chickweed",[17]; [19],85
same,Chickweed plant response rating (0 to 100 scale),[17]; [20],95
same,"Plant response rating, Chickweed",[17]; [22],98
same,"Plant response rating, Chickweed",[17]; [21],100
same,"Plant response rating, Barley",[18]; [19],0
same,Barley plant response rating (0 to 100 scale),[18]; [20],30
same,"Plant response rating, Barley",[18]; [22],30
same,"Plant response rating, Barley",[18]; [21],40
O=C1CCCC(O)=C1C(=O)c1cnc(C2CCCC2)n(-c2ccccc2)c1=O [Compound 92],"Plant response rating, Ryegrass, Italian",[1]; [19],0
same,"Ryegrass, Italian plant response rating (0 to 100 scale)",[1]; [20],0
same,"Plant response rating, Ryegrass, Italian",[1]; [21],30
same,"Plant response rating, Bermudagrass",[2]; [19],20
same,Bermudagrass plant response rating (0 to 100 scale),[2]; [20],80
same,"Plant response rating, Bermudagrass",[2]; [22],85
same,"Plant response rating, Bermudagrass",[2]; [21],85
same,"Plant response rating, Blackgrass",[3]; [19],0
same,Blackgrass plant response rating (0 to 100 scale),[3]; [20],0
same,"Plant response rating, Blackgrass",[3]; [22],5
same,"Plant response rating, Blackgrass",[3]; [21],5
same,"Plant response rating, Corn",[4]; [19],20
same,Corn plant response rating (0 to 100 scale),[4]; [20],35
same,"Plant response rating, Corn",[4]; [22],45
same,"Plant response rating, Corn",[4]; [21],60
same,"Plant response rating, Bromegrass, Downy",[5]; [19],0
same,"Bromegrass, Downy plant response rating (0 to 100 scale)",[5]; [20],5
same,"Plant response rating, Bromegrass, Downy",[5]; [22],20
same,"Plant response rating, Bromegrass, Downy",[5]; [21],20
same,"Plant response rating, Foxtail, Giant",[6]; [19],65
same,"Foxtail, Giant plant response rating (0 to 100 scale)",[6]; [20],75
same,"Plant response rating, Foxtail, Giant",[6]; [21],98
same,"Plant response rating, Goosegrass",[7]; [19],60
same,Goosegrass plant response rating (0 to 100 scale),[7]; [20],70
same,"Plant response rating, Goosegrass",[7]; [21],90
same,"Plant response rating, Foxtail, Green",[8]; [19],75
same,"Foxtail, Green plant response rating (0 to 100 scale)",[8]; [20],80
same,"Plant response rating, Foxtail, Green",[8]; [21],98
same,"Plant response rating, Johnsongrass",[9]; [19],20
same,Johnsongrass plant response rating (0 to 100 scale),[9]; [20],85
same,"Plant response rating, Johnsongrass",[9]; [21],100
same,"Plant response rating, Morningglory",[10]; [19],80
same,Morningglory plant response rating (0 to 100 scale),[10]; [20],95
same,"Plant response rating, Morningglory",[10]; [21],100
same,"Plant response rating, Pigweed",[11]; [19],90
same,Pigweed plant response rating (0 to 100 scale),[11]; [20],100
same,"Plant response rating, Pigweed",[11]; [21],100
same,"Plant response rating, Ragweed",[12]; [19],40
same,Ragweed plant response rating (0 to 100 scale),[12]; [20],60
same,"Plant response rating, Ragweed",[12]; [21],75
same,"Plant response rating, Soybean",[13]; [19],90
same,Soybean plant response rating (0 to 100 scale),[13]; [20],98
same,"Plant response rating, Soybean",[13]; [21],98
same,"Plant response rating, Velvetleaf",[14]; [19],95
same,Velvetleaf plant response rating (0 to 100 scale),[14]; [20],100
same,"Plant response rating, Velvetleaf",[14]; [21],100
same,"Plant response rating, Wheat",[15]; [19],0
same,Wheat plant response rating (0 to 100 scale),[15]; [20],0
same,"Plant response rating, Wheat",[15]; [21],0
same,"Plant response rating, Canarygrass",[16]; [19],0
same,Canarygrass plant response rating (0 to 100 scale),[16]; [20],0
same,"Plant response rating, Canarygrass",[16]; [22],0
same,"Plant response rating, Canarygrass",[16]; [21],0
same,"Plant response rating, Chickweed",[17]; [19],90
same,Chickweed plant response rating (0 to 100 scale),[17]; [20],95
same,"Plant response rating, Chickweed",[17]; [22],98
same,"Plant response rating, Chickweed",[17]; [21],100
same,"Plant response rating, Barley",[18]; [19],0
same,Barley plant response rating (0 to 100 scale),[18]; [20],0
same,"Plant response rating, Barley",[18]; [22],0
same,"Plant response rating, Barley",[18]; [21],0
